{
  "source": "the kinase profiling compilation of Christmann-Franck et al. (2016)",
  "assay_in_all_cases": "KINOMEscan competition binding",
  "conditions_in_all_cases": "compound 10.0 µM",
  "key": {"SRC (human)": {"molecular_target": "SRC (human) (UniProt P12931)"}, "PTK2 (human)": {"molecular_target": "PTK2 (human) (UniProt Q05397)"}, "FER (human)": {"molecular_target": "FER (human) (UniProt P16591)"}, "[1]": {"tested_on": "KIT (human), P10721 [V559D/V654A]"}, "BLK (human)": {"molecular_target": "BLK (human) (UniProt P51451)"}, "DDR1 (human)": {"molecular_target": "DDR1 (human) (UniProt Q08345)"}, "CDK5 (human)": {"molecular_target": "CDK5 (human) (UniProt Q00535)"}, "[2]": {"tested_on": "ABL1 (human), P00519 [F317I]"}, "CAMK1G (human)": {"molecular_target": "CAMK1G (human) (UniProt Q96NX5)", "sequence (Q96NX5 whole entry, looked up)": "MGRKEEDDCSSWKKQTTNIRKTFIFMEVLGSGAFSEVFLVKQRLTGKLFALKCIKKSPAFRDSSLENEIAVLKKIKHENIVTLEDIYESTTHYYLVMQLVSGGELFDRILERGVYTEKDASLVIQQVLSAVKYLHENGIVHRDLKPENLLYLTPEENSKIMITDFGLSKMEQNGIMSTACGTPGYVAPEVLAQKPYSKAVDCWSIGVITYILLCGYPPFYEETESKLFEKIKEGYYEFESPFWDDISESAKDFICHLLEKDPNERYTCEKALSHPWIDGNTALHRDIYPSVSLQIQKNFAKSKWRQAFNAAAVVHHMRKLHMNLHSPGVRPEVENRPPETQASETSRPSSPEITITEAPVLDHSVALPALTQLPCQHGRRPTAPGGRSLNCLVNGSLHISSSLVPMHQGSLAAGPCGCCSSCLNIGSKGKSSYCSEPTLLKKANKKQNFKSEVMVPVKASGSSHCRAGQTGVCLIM"}, "NTRK3 (human)": {"molecular_target": "NTRK3 (human) (UniProt Q16288)"}, "MAPK8 (human)": {"molecular_target": "MAPK8 (human) (UniProt P45983)", "sequence (P45983 whole entry, looked up)": "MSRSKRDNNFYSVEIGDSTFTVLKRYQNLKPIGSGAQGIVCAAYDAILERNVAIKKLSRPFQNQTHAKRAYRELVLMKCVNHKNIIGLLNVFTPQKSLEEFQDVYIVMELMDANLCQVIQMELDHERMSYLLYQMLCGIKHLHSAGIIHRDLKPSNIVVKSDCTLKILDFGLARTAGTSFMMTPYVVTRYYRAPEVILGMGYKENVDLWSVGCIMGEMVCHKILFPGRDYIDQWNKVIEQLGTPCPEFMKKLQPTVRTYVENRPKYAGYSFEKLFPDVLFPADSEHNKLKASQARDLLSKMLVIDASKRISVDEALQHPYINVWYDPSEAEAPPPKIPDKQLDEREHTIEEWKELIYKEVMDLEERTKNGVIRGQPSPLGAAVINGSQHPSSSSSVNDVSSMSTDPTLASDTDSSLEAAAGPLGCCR"}, "CDK16 (human)": {"molecular_target": "CDK16 (human) (UniProt Q00536)", "sequence (Q00536 whole entry, looked up)": "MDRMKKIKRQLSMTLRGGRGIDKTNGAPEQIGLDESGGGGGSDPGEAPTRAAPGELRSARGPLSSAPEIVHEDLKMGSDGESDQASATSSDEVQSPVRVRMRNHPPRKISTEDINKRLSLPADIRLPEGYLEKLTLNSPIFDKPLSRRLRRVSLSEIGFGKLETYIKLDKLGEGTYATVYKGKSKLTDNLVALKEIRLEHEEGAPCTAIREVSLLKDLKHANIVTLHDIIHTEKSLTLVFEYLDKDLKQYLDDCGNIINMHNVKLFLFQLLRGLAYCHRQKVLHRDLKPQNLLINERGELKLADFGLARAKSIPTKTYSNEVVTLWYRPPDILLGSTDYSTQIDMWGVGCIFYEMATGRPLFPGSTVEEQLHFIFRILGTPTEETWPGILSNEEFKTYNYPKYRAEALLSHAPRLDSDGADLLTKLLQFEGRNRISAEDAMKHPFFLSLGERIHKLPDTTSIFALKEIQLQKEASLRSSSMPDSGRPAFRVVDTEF"}, "[3]": {"tested_on": "FGFR3 (human), P22607 [G697C]"}, "ALK (human)": {"molecular_target": "ALK (human) (UniProt Q9UM73)"}, "[4]": {"tested_on": "EGFR (human), P00533 [A750P; 747-749 del]"}, "SIK1 (human)": {"molecular_target": "SIK1 (human) (UniProt P57059)"}, "CHUK (human)": {"molecular_target": "CHUK (human) (UniProt O15111)"}, "[5]": {"tested_on": "EGFR (human), P00533 [G719C]"}, "EPHA8 (human)": {"molecular_target": "EPHA8 (human) (UniProt P29322)"}, "TIE1 (human)": {"molecular_target": "TIE1 (human) (UniProt P35590)"}, "PRKACB (human)": {"molecular_target": "PRKACB (human) (UniProt P22694)"}, "FGFR1 (human)": {"molecular_target": "FGFR1 (human) (UniProt P11362)", "sequence (P11362 whole entry, looked up)": "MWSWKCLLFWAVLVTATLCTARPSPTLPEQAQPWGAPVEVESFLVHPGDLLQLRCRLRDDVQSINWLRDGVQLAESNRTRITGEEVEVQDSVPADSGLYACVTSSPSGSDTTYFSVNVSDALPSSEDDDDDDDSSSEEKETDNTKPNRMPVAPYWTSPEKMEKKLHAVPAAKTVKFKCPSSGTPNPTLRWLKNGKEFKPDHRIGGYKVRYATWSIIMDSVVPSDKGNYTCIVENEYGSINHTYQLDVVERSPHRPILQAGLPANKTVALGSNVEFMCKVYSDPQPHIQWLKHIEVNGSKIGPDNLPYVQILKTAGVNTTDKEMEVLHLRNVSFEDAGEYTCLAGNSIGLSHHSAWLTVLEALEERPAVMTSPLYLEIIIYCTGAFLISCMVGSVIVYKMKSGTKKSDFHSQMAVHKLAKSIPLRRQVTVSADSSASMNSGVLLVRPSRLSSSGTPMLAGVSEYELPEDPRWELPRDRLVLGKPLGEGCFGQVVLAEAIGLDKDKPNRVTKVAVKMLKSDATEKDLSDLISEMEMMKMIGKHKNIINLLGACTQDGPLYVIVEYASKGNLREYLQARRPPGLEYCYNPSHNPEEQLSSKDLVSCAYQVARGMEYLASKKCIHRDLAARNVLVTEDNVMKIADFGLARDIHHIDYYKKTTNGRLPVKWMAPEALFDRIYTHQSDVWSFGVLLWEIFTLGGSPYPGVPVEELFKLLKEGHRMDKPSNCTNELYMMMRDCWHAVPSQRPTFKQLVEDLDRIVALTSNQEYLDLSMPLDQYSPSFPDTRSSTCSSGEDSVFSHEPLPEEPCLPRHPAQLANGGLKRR"}, "MAP4K2 (human)": {"molecular_target": "MAP4K2 (human) (UniProt Q12851)"}, "[6]": {"tested_on": "EGFR (human), P00533 [752-759 del]"}, "MAPK13 (human)": {"molecular_target": "MAPK13 (human) (UniProt O15264)", "sequence (O15264 whole entry, looked up)": "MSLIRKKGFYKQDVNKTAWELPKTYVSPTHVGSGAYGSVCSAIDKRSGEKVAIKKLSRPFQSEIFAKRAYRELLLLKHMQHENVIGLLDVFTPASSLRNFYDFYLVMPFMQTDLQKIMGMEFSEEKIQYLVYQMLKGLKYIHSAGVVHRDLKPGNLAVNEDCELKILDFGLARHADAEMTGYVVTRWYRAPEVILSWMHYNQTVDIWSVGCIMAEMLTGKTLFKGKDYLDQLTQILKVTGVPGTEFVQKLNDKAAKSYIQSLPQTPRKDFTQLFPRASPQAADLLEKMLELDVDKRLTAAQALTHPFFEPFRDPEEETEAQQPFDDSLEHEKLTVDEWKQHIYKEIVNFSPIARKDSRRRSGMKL"}, "HCK (human)": {"molecular_target": "HCK (human) (UniProt P08631)"}, "STK10 (human)": {"molecular_target": "STK10 (human) (UniProt O94804)"}, "EGFR (human)": {"molecular_target": "EGFR (human) (UniProt P00533)"}, "LYN (human)": {"molecular_target": "LYN (human) (UniProt P07948)", "sequence (P07948 whole entry, looked up)": "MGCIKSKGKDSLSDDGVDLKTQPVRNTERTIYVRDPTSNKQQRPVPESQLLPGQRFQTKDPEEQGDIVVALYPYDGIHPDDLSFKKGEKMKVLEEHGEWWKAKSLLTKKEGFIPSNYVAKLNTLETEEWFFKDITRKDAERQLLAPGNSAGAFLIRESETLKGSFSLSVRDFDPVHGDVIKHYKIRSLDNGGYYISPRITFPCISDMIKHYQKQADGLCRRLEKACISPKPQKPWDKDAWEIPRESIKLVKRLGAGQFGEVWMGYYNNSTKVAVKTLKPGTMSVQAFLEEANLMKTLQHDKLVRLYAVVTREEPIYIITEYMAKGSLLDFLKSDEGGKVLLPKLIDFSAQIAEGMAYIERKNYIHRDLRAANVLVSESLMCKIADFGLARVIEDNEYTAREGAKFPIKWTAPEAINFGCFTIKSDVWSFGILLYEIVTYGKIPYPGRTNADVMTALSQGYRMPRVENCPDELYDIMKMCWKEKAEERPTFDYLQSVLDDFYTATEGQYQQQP"}, "EPHA2 (human)": {"molecular_target": "EPHA2 (human) (UniProt P29317)", "sequence (P29317 whole entry, looked up)": "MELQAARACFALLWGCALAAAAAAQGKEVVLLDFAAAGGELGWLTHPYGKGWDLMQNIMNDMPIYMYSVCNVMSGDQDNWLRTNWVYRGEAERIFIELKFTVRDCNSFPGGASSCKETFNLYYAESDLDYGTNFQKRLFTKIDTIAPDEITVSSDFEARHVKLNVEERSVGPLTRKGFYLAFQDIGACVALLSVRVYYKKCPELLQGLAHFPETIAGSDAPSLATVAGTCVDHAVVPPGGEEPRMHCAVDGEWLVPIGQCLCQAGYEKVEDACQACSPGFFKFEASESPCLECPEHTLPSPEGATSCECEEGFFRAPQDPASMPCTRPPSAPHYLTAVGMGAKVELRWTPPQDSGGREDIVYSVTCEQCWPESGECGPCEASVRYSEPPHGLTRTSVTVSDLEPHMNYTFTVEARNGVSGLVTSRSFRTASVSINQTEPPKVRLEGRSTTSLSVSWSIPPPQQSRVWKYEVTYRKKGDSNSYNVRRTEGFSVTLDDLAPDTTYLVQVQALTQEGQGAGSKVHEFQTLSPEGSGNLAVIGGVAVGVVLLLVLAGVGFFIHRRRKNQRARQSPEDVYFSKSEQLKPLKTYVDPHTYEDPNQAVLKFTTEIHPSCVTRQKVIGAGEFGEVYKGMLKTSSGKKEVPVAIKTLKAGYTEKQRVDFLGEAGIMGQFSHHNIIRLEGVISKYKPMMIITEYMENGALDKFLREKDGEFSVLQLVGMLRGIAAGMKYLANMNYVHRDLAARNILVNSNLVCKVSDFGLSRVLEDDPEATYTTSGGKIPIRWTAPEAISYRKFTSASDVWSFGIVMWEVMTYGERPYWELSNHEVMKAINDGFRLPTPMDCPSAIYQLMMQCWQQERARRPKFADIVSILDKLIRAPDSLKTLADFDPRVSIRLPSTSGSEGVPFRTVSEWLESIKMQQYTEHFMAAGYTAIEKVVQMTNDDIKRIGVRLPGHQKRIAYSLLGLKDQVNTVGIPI"}, "CDK8 (human)": {"molecular_target": "CDK8 (human) (UniProt P49336)"}, "MUSK (human)": {"molecular_target": "MUSK (human) (UniProt O15146)"}, "MAPK12 (human)": {"molecular_target": "MAPK12 (human) (UniProt P53778)"}, "MAP4K1 (human)": {"molecular_target": "MAP4K1 (human) (UniProt Q92918)"}, "SYK (human)": {"molecular_target": "SYK (human) (UniProt P43405)"}, "CDC2L2 (human)": {"molecular_target": "CDC2L2 (human) (UniProt Q9UQ88)", "sequence (Q9UQ88 whole entry, looked up)": "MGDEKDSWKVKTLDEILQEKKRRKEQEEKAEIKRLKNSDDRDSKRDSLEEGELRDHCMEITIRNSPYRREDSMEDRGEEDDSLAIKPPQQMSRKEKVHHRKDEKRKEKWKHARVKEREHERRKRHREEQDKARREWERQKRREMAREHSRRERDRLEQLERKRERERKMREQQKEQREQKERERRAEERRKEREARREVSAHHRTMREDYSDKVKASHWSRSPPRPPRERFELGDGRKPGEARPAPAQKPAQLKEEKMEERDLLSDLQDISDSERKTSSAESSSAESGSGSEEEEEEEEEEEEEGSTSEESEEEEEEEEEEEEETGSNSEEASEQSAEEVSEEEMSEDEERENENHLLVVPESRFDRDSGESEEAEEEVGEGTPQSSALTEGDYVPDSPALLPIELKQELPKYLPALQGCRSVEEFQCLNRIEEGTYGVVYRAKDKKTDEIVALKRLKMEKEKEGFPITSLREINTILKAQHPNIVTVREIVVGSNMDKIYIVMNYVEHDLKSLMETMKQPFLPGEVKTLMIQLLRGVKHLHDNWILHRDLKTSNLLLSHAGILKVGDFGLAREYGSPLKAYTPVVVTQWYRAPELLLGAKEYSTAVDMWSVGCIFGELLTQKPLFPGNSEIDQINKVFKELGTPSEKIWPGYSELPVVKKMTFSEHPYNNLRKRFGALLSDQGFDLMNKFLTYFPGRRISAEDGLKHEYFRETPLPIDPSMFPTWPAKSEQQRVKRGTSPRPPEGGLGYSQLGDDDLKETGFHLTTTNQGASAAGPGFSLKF"}, "CDK14 (human)": {"molecular_target": "CDK14 (human) (UniProt O94921)"}, "[7]": {"tested_on": "EGFR (human), P00533 [L861Q]"}, "[8]": {"tested_on": "ABL1 (human), P00519 [H396P]"}, "TTK (human)": {"molecular_target": "TTK (human) (UniProt P33981)"}, "KIT (human)": {"molecular_target": "KIT (human) (UniProt P10721)"}},
  "data": [
    {"smiles": "CCN1CCN(Cc2ccc(NC(=O)c3ccc(C)c(Oc4ccnc5[nH]ccc45)c3)cc2C(F)(F)F)CC1", "values": [
      {"measurement": "kinase still bound, per cent of control", "setting": "SRC (human)", "value": 0.2, "unit": "%"},
      {"measurement": "kinase still bound, per cent of control", "setting": "PTK2 (human)", "value": 23, "unit": "%"},
      {"measurement": "kinase still bound, per cent of control", "setting": "FER (human)", "value": 0.5, "unit": "%"},
      {"measurement": "kinase still bound, per cent of control", "setting": "[1]", "value": 2.7, "unit": "%"},
      {"measurement": "kinase still bound, per cent of control", "setting": "BLK (human)", "value": 0.45, "unit": "%"},
      {"measurement": "kinase still bound, per cent of control", "setting": "DDR1 (human)", "value": 0.05, "unit": "%"},
      {"measurement": "residual activity", "setting": "CDK5 (human)", "value": 19, "unit": "%"},
      {"measurement": "kinase still bound, per cent of control", "setting": "[2]", "value": 0.05, "unit": "%"},
      {"measurement": "kinase still bound, per cent of control", "setting": "CAMK1G (human)", "value": 20, "unit": "%"},
      {"measurement": "kinase still bound, per cent of control", "setting": "NTRK3 (human)", "value": 3.8, "unit": "%"},
      {"measurement": "kinase still bound, per cent of control", "setting": "MAPK8 (human)", "value": 0, "unit": "%"},
      {"measurement": "residual activity", "setting": "CDK16 (human)", "value": 11, "unit": "%"},
      {"measurement": "kinase still bound, per cent of control", "setting": "[3]", "value": 16, "unit": "%"},
      {"measurement": "kinase still bound, per cent of control", "setting": "ALK (human)", "value": 0.55, "unit": "%"},
      {"measurement": "kinase still bound, per cent of control", "setting": "[4]", "value": 1.5, "unit": "%"},
      {"measurement": "kinase still bound, per cent of control", "setting": "SIK1 (human)", "value": 5.3, "unit": "%"},
      {"measurement": "kinase still bound, per cent of control", "setting": "CHUK (human)", "value": 0.95, "unit": "%"},
      {"measurement": "kinase still bound, per cent of control", "setting": "[5]", "value": 12, "unit": "%"},
      {"measurement": "kinase still bound, per cent of control", "setting": "EPHA8 (human)", "value": 0.1, "unit": "%"},
      {"measurement": "kinase still bound, per cent of control", "setting": "TIE1 (human)", "value": 0.95, "unit": "%"},
      {"measurement": "residual activity", "setting": "PRKACB (human)", "value": 14, "unit": "%"},
      {"measurement": "kinase still bound, per cent of control", "setting": "FGFR1 (human)", "value": 1.7, "unit": "%"},
      {"measurement": "kinase still bound, per cent of control", "setting": "MAP4K2 (human)", "value": 0.3, "unit": "%"},
      {"measurement": "kinase still bound, per cent of control", "setting": "[6]", "value": 4.6, "unit": "%"},
      {"measurement": "kinase still bound, per cent of control", "setting": "MAPK13 (human)", "value": 0.55, "unit": "%"},
      {"measurement": "kinase still bound, per cent of control", "setting": "HCK (human)", "value": 0.4, "unit": "%"},
      {"measurement": "kinase still bound, per cent of control", "setting": "STK10 (human)", "value": 0, "unit": "%"},
      {"measurement": "kinase still bound, per cent of control", "setting": "EGFR (human)", "value": 5.6, "unit": "%"},
      {"measurement": "kinase still bound, per cent of control", "setting": "LYN (human)", "value": 0.75, "unit": "%"},
      {"measurement": "kinase still bound, per cent of control", "setting": "EPHA2 (human)", "value": 3.1, "unit": "%"},
      {"measurement": "residual activity", "setting": "CDK8 (human)", "value": 3.9, "unit": "%"},
      {"measurement": "kinase still bound, per cent of control", "setting": "MUSK (human)", "value": 0.2, "unit": "%"},
      {"measurement": "kinase still bound, per cent of control", "setting": "MAPK12 (human)", "value": 0, "unit": "%"},
      {"measurement": "kinase still bound, per cent of control", "setting": "MAP4K1 (human)", "value": 1.6, "unit": "%"},
      {"measurement": "kinase still bound, per cent of control", "setting": "SYK (human)", "value": 6.2, "unit": "%"},
      {"measurement": "residual activity", "setting": "CDC2L2 (human)", "value": 0.05, "unit": "%"},
      {"measurement": "residual activity", "setting": "CDK14 (human)", "value": 0.4, "unit": "%"},
      {"measurement": "kinase still bound, per cent of control", "setting": "[7]", "value": 15, "unit": "%"},
      {"measurement": "kinase still bound, per cent of control", "setting": "[8]", "value": 0.7, "unit": "%"},
      {"measurement": "kinase still bound, per cent of control", "setting": "TTK (human)", "value": 24, "unit": "%"},
      {"measurement": "kinase still bound, per cent of control", "setting": "KIT (human)", "value": 0, "unit": "%"}
    ]}
  ]
}
